Some test systems named below: NCI-H460 lung; CCRF-CEM leukemia; HCT-116 colon; IGROV1 ovarian; ACHN renal; NCI-H522 lung; UACC-62 melanoma; SF-268 CNS; SK-MEL-2 melanoma; NCI-H23 lung.
Test in all cases: growth of human tumour cells (NCI), 48 h

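Five concentrations, 48 hours, 96-well plates. GI50 is the concentration that inhibits growth by half. TGI: total growth inhibition.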

The values that follow come from PubChem BioAssay (NCI).

Take `COc1ccc2c(c1)C(=O)c1c-2c(N2CCN(C(=O)CCNCCNCCO)CC2)nc2ccccc12`: the GI50 with NCI-H460 lung was 4.61 µM; with CCRF-CEM leukemia, 5.32 µM; in the test on HCT-116 colon, 2.36 µM; in the test with IGROV1 ovarian, 12.7 µM; in the test with ACHN renal, 16 µM; in the test with NCI-H522 lung, 17.5 µM. The GI50 with UACC-62 melanoma is 21.3 µM; in the test with SF-268 CNS it was 14.3 µM; in the test with SK-MEL-2 melanoma, 24.1 µM. The TGI was determined as 19.6 µM with NCI-H460 lung; 23.7 µM with CCRF-CEM leukemia; 5.52 µM in the test with HCT-116 colon; 45.2 µM in the test with IGROV1 ovarian; 30.8 µM with ACHN renal; 46.8 µM in the test with NCI-H522 lung. Moreover, the figures for the TGI in the test on UACC-62 melanoma, in the test on SF-268 CNS and in the test on SK-MEL-2 melanoma were 38.2 µM, 36.9 µM and 52.6 µM, respectively.
With `N#Cc1c(N)c(C#N)c2c(c1-c1ccc(Cl)cc1)COc1ccc(F)cc1-2`, the GI50 is 18.7 µM in the test with NCI-H460 lung; more than 50 µM in the test with CCRF-CEM leukemia; 6.24 µM in the test with IGROV1 ovarian; 19.7 µM in the test with ACHN renal; 2.75 µM in the test on NCI-H522 lung; 7.11 µM in the test with NCI-H23 lung. Besides, the GI50 in the test on UACC-62 melanoma was 46.4 µM; with SK-MEL-2 melanoma, more than 50 µM. Also, the TGI in the test with NCI-H460 lung is more than 50 µM; in the test on CCRF-CEM leukemia, more than 50 µM; in the test with IGROV1 ovarian, 30.5 µM; in the test on ACHN renal it was more than 50 µM; in the test on NCI-H522 lung, 14.5 µM; with NCI-H23 lung it was 39.2 µM. The TGI in the test with UACC-62 melanoma and with SK-MEL-2 melanoma was more than 50 µM in each case.
Take `NC(=O)c1ncn(Cc2ccccc2)c1CNC(N)=S`: the TGI in the test with NCI-H460 lung, in the test with CCRF-CEM leukemia, in the test with IGROV1 ovarian, in the test on ACHN renal, with NCI-H23 lung and in the test on UACC-62 melanoma was more than 100 µM in each case. Besides, the TGI in the test on SF-268 CNS is more than 100 µM.
As to `Cc1ccc(S(=O)(=O)CC2(Br)CCc3ccccc3C2=O)cc1` (configuration not stated), the TGI is more than 100 µM with NCI-H460 lung; more than 100 µM with HCT-116 colon; 41 µM in the test on IGROV1 ovarian; 38.2 µM with ACHN renal; 32.7 µM with NCI-H522 lung; more than 100 µM with NCI-H23 lung. For the same compound, the TGI in the test on UACC-62 melanoma came to 67.9 µM; in the test on SF-268 CNS it was 36.5 µM; with SK-MEL-2 melanoma, 44.9 µM.
For the compound `O=C1N=C(Nc2nc(-c3csc(NC4=NC(=O)/C(=C\c5ccc(Cl)cc5)S4)n3)cs2)S/C1=C/c1ccc(Cl)cc1`, the GI50 in the test on NCI-H460 lung was 7.86 µM; in the test with IGROV1 ovarian it was 19.8 µM; in the test with ACHN renal, 11.2 µM; with NCI-H522 lung it was 24.7 µM; in the test on NCI-H23 lung, 13.5 µM; with UACC-62 melanoma, 6.03 µM. In addition, the GI50 was 8.29 µM with SF-268 CNS and more than 50 µM in the test on SK-MEL-2 melanoma. The TGI in the test on NCI-H460 lung was more than 50 µM; with IGROV1 ovarian it was more than 50 µM; in the test with ACHN renal it was 48.5 µM; in the test on NCI-H522 lung, more than 50 µM; in the test on NCI-H23 lung it was more than 50 µM; in the test on UACC-62 melanoma, 16.4 µM. The TGI in the test with SF-268 CNS and in the test on SK-MEL-2 melanoma was more than 50 µM throughout.
For `O=C(/C=C/c1ccc(O)cc1)c1cc(Cl)ccc1O`, the TGI in the test on NCI-H460 lung is more than 100 µM; in the test with CCRF-CEM leukemia, 44.8 µM; in the test on HCT-116 colon, 58 µM; with IGROV1 ovarian, more than 100 µM; with ACHN renal, more than 100 µM; in the test on NCI-H522 lung it was 36.2 µM. Besides, the TGI in the test with NCI-H23 lung, with UACC-62 melanoma and in the test on SF-268 CNS was more than 100 µM each time.
As for `Cc1c(O)c(Br)c(C)c(O)c1Br` (tested in a mixture with another compound), the TGI turned out to be 16.1 µM in the test on NCI-H460 lung; 0.807 µM with CCRF-CEM leukemia; 20.5 µM with IGROV1 ovarian; 3.05 µM in the test on ACHN renal; 4.62 µM with NCI-H23 lung; 10.8 µM with UACC-62 melanoma. Besides, the TGI turned out to be 8.45 µM in the test on SF-268 CNS and 10.7 µM with SK-MEL-2 melanoma.
As for `ClCCCCOC1CCCCO1` (configuration not stated), the TGI in the test on NCI-H460 lung, in the test with HCT-116 colon, with IGROV1 ovarian, in the test with ACHN renal, in the test with NCI-H522 lung and with NCI-H23 lung was more than 100 µM throughout. Further, the TGI with UACC-62 melanoma, with SF-268 CNS and with SK-MEL-2 melanoma was more than 100 µM each time.
With `Cc1ccc(NC(=O)C(=O)CC(=O)c2ccccc2)cc1C`, the TGI in the test with NCI-H460 lung, in the test on HCT-116 colon, in the test on IGROV1 ovarian, in the test with ACHN renal, in the test with NCI-H522 lung and in the test with NCI-H23 lung was more than 100 µM each time. The TGI with UACC-62 melanoma and in the test on SF-268 CNS was more than 100 µM throughout.
With `O=C(O)c1cn(C2CC2)c2cc(N3CCN(Cc4ccc5ccccc5c4O)CC3)c(F)cc2c1=O`, the GI50 in the test with IGROV1 ovarian is 4.91 µM; with NCI-H23 lung, 3.51 µM; in the test on UACC-62 melanoma, 5.06 µM; in the test on SF-268 CNS it was 8.13 µM; in the test on SK-MEL-2 melanoma, 5.11 µM. Further, the TGI in the test with IGROV1 ovarian, in the test on NCI-H23 lung, with UACC-62 melanoma, in the test with SF-268 CNS and with SK-MEL-2 melanoma was more than 100 µM in each case.
On to `N[C@@H](CSSC[C@H](N)C(=O)N1CCn2cc(-c3ccccc3)nc2[C@@H]1CC1CCCCC1)C(=O)N1CCn2cc(-c3ccccc3)nc2[C@@H]1CC1CCCCC1`, for which the GI50 was 1.92 µM in the test on NCI-H460 lung; 1.14 µM in the test on HCT-116 colon; 2.41 µM with IGROV1 ovarian; 1.77 µM with ACHN renal; 1.68 µM with NCI-H522 lung; 1.41 µM in the test on NCI-H23 lung. The GI50 is 0.843 µM with UACC-62 melanoma, 0.344 µM in the test on SF-268 CNS and 0.837 µM in the test with SK-MEL-2 melanoma. Further, the TGI was 6.4 µM in the test on NCI-H460 lung; 2.51 µM in the test on HCT-116 colon; 5.96 µM in the test on IGROV1 ovarian; 3.81 µM with ACHN renal; 3.39 µM in the test with NCI-H522 lung; 3.14 µM with NCI-H23 lung. Besides, the TGI in the test with UACC-62 melanoma amounted to 2.32 µM; with SF-268 CNS, 2.46 µM; in the test on SK-MEL-2 melanoma it was 2.28 µM.
Consider `c1ccc2c(c1)N=C(c1ccc3ccccc3c1)CC(c1cccc3ccccc13)S2` (configuration not stated), for which the TGI is more than 100 µM with NCI-H460 lung; 33.5 µM in the test with CCRF-CEM leukemia; more than 100 µM with IGROV1 ovarian; more than 100 µM in the test on ACHN renal; 75.4 µM with NCI-H522 lung; more than 100 µM in the test on NCI-H23 lung. Also, the TGI with UACC-62 melanoma, in the test on SF-268 CNS and in the test on SK-MEL-2 melanoma was more than 100 µM in each case.
